Results reported in ChEMBL document CHEMBL4483862, “Open-source discovery of chemical leads for next-generation chemoprotective antimalarials” (2018).

Test system: Plasmodium berghei
Assay: Luciferase/luciferin-expressing antifolate-resistant parasites were used to infect a culture of HepG2 cells that were pre-incubated with compounds. Infected hepatocytes emit light due to the luciferase reaction. Assay results are presented as the percent inhibition of light emission compared to control. […]
Type: functional
Details: sporozoite; for IC90: read-out: LUCIFERASE INFECTION ASSAY - IC90

Row | Structure (SMILES) | IC90 | also measured
1 | CC(=O)N1CCCC(c2cc(C(=O)Nc3ccccc3)no2)C1 (stereo not drawn) | 1.44 µM | IC50 (FFLUC_HILL_SLOPE 1.94, FFLUC_R_SQUARED 0.745, PBLUC_HILL_SLOPE 0.811, PBLUC_R_SQUARED 0.626, read-out: LUCIFERASE INFECTION ASSAY - IC50): 0.0959 µM
2 | CCc1c(C)sc2nc(SCC3COc4ccccc4O3)n(-c3ccc(O)cc3C)c(=O)c12 (stereo not drawn) | > 10 µM | IC50 (FFLUC_HILL_SLOPE 1.97, FFLUC_R_SQUARED 0.841, read-out: LUCIFERASE INFECTION ASSAY - IC50): > 10 µM
3 | COc1ccccc1NS(=O)(=O)c1ccc2c(c1)N=Cc1c(F)cccc1O2 | > 10 µM | IC50 (FFLUC_HILL_SLOPE 2, FFLUC_R_SQUARED 0.88, HEPG2TOX_HILL_SLOPE 51.5, HEPG2TOX_R_SQUARED 0.639, PBLUC_HILL_SLOPE 12.2, PBLUC_R_SQUARED 0.289, read-out: LUCIFERASE INFECTION ASSAY - IC50): 9.2 µM
4 | O=C(OCc1cc(=O)oc2cc(O)ccc12)c1c2c(nc3ccccc13)/C(=C/c1ccc([N+](=O)[O-])cc1)CCC2 | > 10 µM | IC50 (FFLUC_HILL_SLOPE 2.06, FFLUC_R_SQUARED 0.63, PBLUC_HILL_SLOPE 4.67, PBLUC_R_SQUARED 0.673, read-out: LUCIFERASE INFECTION ASSAY - IC50): 7.7 µM
5 | N#CCOc1cc(Cl)cc(Cl)c1 | > 16.3 µM | IC50 (FFLUC_HILL_SLOPE 1.89, FFLUC_R_SQUARED 0.0257, read-out: LUCIFERASE INFECTION ASSAY - IC50): > 16.3 µM
6 | O=C(Nc1cccc(C(F)(F)F)c1)OCCSc1ccc([N+](=O)[O-])c2nonc12 | > 7.7 µM | IC50 (FFLUC_HILL_SLOPE 1.97, FFLUC_R_SQUARED 0.686, HEPG2TOX_HILL_SLOPE 15.6, HEPG2TOX_R_SQUARED 0.779, read-out: LUCIFERASE INFECTION ASSAY - IC50): > 7.7 µM
7 | COc1ccc(-c2n[nH]c(SC(C(=O)Nc3cc(Cl)cc(Cl)c3)c3ccccc3)nc2=O)cc1 (stereo not drawn) | 3.75 µM | IC50 (FFLUC_HILL_SLOPE 1.9, FFLUC_R_SQUARED 0.863, HEPG2TOX_HILL_SLOPE 8.67, HEPG2TOX_R_SQUARED 0.533, PBLUC_HILL_SLOPE 16.2, PBLUC_R_SQUARED 0.618, read-out: LUCIFERASE INFECTION ASSAY - IC50): 3.27 µM
8 | CCOc1ccc(NC(=O)c2ccccc2NC(=O)COC(=O)/C(=C/c2cc(OC)c(OC)c(OC)c2)c2ccc(-c3ccccc3)cc2)cc1 | > 10 µM | IC50 (FFLUC_HILL_SLOPE 2.07, FFLUC_R_SQUARED 0.755, PBLUC_HILL_SLOPE 3.07, PBLUC_R_SQUARED 0.285, read-out: LUCIFERASE INFECTION ASSAY - IC50): 6.17 µM
9 | CC1=C(C(=O)Nc2cc(C)on2)C(c2csc(-c3ccc(Cl)cc3)n2)NC(=S)N1C1CC1 (stereo not drawn) | 9.79 µM | IC50 (FFLUC_HILL_SLOPE 2.07, FFLUC_R_SQUARED 0.469, PBLUC_HILL_SLOPE 2.7, PBLUC_R_SQUARED 0.533, read-out: LUCIFERASE INFECTION ASSAY - IC50): 4.34 µM
10 | N#Cc1c(Cl)cccc1N1CCOCC1 | > 14.8 µM | IC50 (FFLUC_HILL_SLOPE 1.9, FFLUC_R_SQUARED 0.649, HEPG2TOX_HILL_SLOPE 2.33, HEPG2TOX_R_SQUARED 0.905, PBLUC_HILL_SLOPE 3.58, PBLUC_R_SQUARED 0.165, read-out: LUCIFERASE INFECTION ASSAY - IC50): 14.1 µM
11 | CC(C)(C)C(=O)/C=c1\[nH]c(=O)/c(=C\c2ccc(-c3ccc(S(=O)(=O)N4CCOCC4)cc3)o2)s1 | > 10 µM | IC50 (FFLUC_HILL_SLOPE 2, FFLUC_R_SQUARED 0.892, read-out: LUCIFERASE INFECTION ASSAY - IC50): > 10 µM
12 | CCCCNC(=O)c1c(NC(=O)c2ccccc2)nc2ccccn12 | 7.86 µM | IC50 (FFLUC_HILL_SLOPE 2.02, FFLUC_R_SQUARED 0.16, HEPG2TOX_HILL_SLOPE 0.796, HEPG2TOX_R_SQUARED 0.541, PBLUC_HILL_SLOPE 4.74, PBLUC_R_SQUARED 0.419, read-out: LUCIFERASE INFECTION ASSAY - IC50): 4.95 µM
13 | CCCCNC(=O)c1c(NC(=O)c2cccc(C(F)(F)F)c2)nc2ccc(C)cn12 | 1 µM | IC50 (FFLUC_HILL_SLOPE 2.04, FFLUC_R_SQUARED 0.518, HEPG2TOX_HILL_SLOPE 1.13, HEPG2TOX_R_SQUARED 0.759, PBLUC_HILL_SLOPE 2.77, PBLUC_R_SQUARED 0.788, read-out: LUCIFERASE INFECTION ASSAY - IC50): 0.453 µM
14 | Cc1cn2c(CC(=O)Nc3ccc(C(F)(F)F)cc3)csc2n1 | 5.2 µM | IC50 (FFLUC_HILL_SLOPE 1.95, FFLUC_R_SQUARED 0.137, HEPG2TOX_HILL_SLOPE 2.23, HEPG2TOX_R_SQUARED 0.859, PBLUC_HILL_SLOPE 8.61, PBLUC_R_SQUARED 0.683, read-out: LUCIFERASE INFECTION ASSAY - IC50): 4.03 µM
15 | CCOC(=O)c1c(-c2ccc(C)cc2C)csc1NC(=O)COC(=O)c1cc(OC)c(OC)cc1[N+](=O)[O-] | 9.51 µM | IC50 (FFLUC_HILL_SLOPE 2.01, FFLUC_R_SQUARED 0.464, HEPG2TOX_HILL_SLOPE 2.45, HEPG2TOX_R_SQUARED 0.944, PBLUC_HILL_SLOPE 17.4, PBLUC_R_SQUARED 0.281, read-out: LUCIFERASE INFECTION ASSAY - IC50): 8.38 µM
16 | Cc1nn(-c2ccccc2)c2sc(-c3[nH]nc(-c4ccccc4)c3-c3nc4ccccc4[nH]3)cc12 | 7.66 µM | IC50 (FFLUC_HILL_SLOPE 1.87, FFLUC_R_SQUARED 0.663, HEPG2TOX_HILL_SLOPE 0.372, HEPG2TOX_R_SQUARED 0.356, PBLUC_HILL_SLOPE 1.24, PBLUC_R_SQUARED 0.688, read-out: LUCIFERASE INFECTION ASSAY - IC50): 1.3 µM
17 | CN(C)c1cccc(-c2cnc3sc(NCCc4ccc(S(N)(=O)=O)cc4)nn23)c1 | > 7.46 µM | IC50 (FFLUC_HILL_SLOPE 1.97, FFLUC_R_SQUARED 0.664, read-out: LUCIFERASE INFECTION ASSAY - IC50): > 7.46 µM
18 | Clc1ccc(-c2nc3ncc(Br)cc3[nH]2)cc1 | 3.76 µM | IC50 (FFLUC_HILL_SLOPE 1.95, FFLUC_R_SQUARED 0.684, PBLUC_HILL_SLOPE 3.28, PBLUC_R_SQUARED 0.422, read-out: LUCIFERASE INFECTION ASSAY - IC50): 1.92 µM
19 | Cc1cccc(Cn2nc(C(C)(C)C)cc2-c2nnc(SCc3c(F)cccc3Cl)n2C2CCCCC2)c1 | > 5.98 µM | IC50 (FFLUC_HILL_SLOPE 2.05, FFLUC_R_SQUARED 0.435, PBLUC_HILL_SLOPE 2, PBLUC_R_SQUARED 0.623, read-out: LUCIFERASE INFECTION ASSAY - IC50): 4.03 µM
20 | O=C(NC1CCCCC1)c1ccccc1-n1ncc(Cl)c(Cl)c1=O | 3.79 µM | IC50 (FFLUC_HILL_SLOPE 2.05, FFLUC_R_SQUARED 0.721, HEPG2TOX_HILL_SLOPE 15.4, HEPG2TOX_R_SQUARED 0.582, PBLUC_HILL_SLOPE 17.3, PBLUC_R_SQUARED 0.758, read-out: LUCIFERASE INFECTION ASSAY - IC50): 3.34 µM
21 | Cc1nn(-c2ccccc2)c(N2CCCCC2)c1/C=N/Nc1cc(-c2ccccc2)c2ccccc2n1 | > 10 µM | IC50 (FFLUC_HILL_SLOPE 1.88, FFLUC_R_SQUARED 0.83, PBLUC_HILL_SLOPE 15.6, PBLUC_R_SQUARED 0.0616, read-out: LUCIFERASE INFECTION ASSAY - IC50): 8.96 µM
22 | N#C/C(=N\Nc1cc(C(F)(F)F)cc(C(F)(F)F)c1)S(=O)(=O)c1ccc(Cl)cc1 | 1.73 µM | IC50 (FFLUC_HILL_SLOPE 2.02, FFLUC_R_SQUARED 0.178, HEPG2TOX_HILL_SLOPE 2.35, HEPG2TOX_R_SQUARED 0.941, PBLUC_HILL_SLOPE 1.74, PBLUC_R_SQUARED 0.757, read-out: LUCIFERASE INFECTION ASSAY - IC50): 0.488 µM
23 | O=C(Nc1cc(Cl)cc(Cl)c1)c1cc(Cl)c(-n2cccc2)c(Cl)c1 | 4.35 µM | IC50 (FFLUC_HILL_SLOPE 1.91, FFLUC_R_SQUARED 0.0412, HEPG2TOX_HILL_SLOPE 16.8, HEPG2TOX_R_SQUARED 0.892, PBLUC_HILL_SLOPE 9.75, PBLUC_R_SQUARED 0.262, read-out: LUCIFERASE INFECTION ASSAY - IC50): 3.47 µM
24 | O=[N+]([O-])c1c(Sc2ccc(Cl)cc2)ccc2nsnc12 | 8.49 µM | IC50 (FFLUC_HILL_SLOPE 1.96, FFLUC_R_SQUARED 0.577, HEPG2TOX_HILL_SLOPE 12.8, HEPG2TOX_R_SQUARED 0.787, PBLUC_HILL_SLOPE 2.81, PBLUC_R_SQUARED 0.465, read-out: LUCIFERASE INFECTION ASSAY - IC50): 3.88 µM
25 | CSc1sc(C(=O)Nc2ccc(F)c(Cl)c2)c(-c2ccc(Cl)cc2)c1C#N | > 7.55 µM | IC50 (FFLUC_HILL_SLOPE 1.91, FFLUC_R_SQUARED 0.467, read-out: LUCIFERASE INFECTION ASSAY - IC50): > 7.55 µM
26 | COc1ccccc1-c1noc(-c2cc3c(s2)CCCCC3)n1 | 0.846 µM | IC50 (FFLUC_HILL_SLOPE 2.02, FFLUC_R_SQUARED 0.0931, PBLUC_HILL_SLOPE 0.909, PBLUC_R_SQUARED 0.727, read-out: LUCIFERASE INFECTION ASSAY - IC50): 0.0754 µM
27 | CCOC(=O)c1oc2ccccc2c1CSc1nc2ccccc2c(=O)n1Cc1ccccc1 | 4.13 µM | IC50 (FFLUC_HILL_SLOPE 1.98, FFLUC_R_SQUARED 0.579, HEPG2TOX_HILL_SLOPE 1.74, HEPG2TOX_R_SQUARED 0.914, PBLUC_HILL_SLOPE 15.9, PBLUC_R_SQUARED 0.125, read-out: LUCIFERASE INFECTION ASSAY - IC50): 3.6 µM
28 | COc1cc(NC(=O)COC(=O)c2c(C)nn(Cc3ccc(Cl)cc3Cl)c2Cl)c(C)cc1[N+](=O)[O-] | > 10 µM | IC50 (FFLUC_HILL_SLOPE 1.94, FFLUC_R_SQUARED 0.846, read-out: LUCIFERASE INFECTION ASSAY - IC50): > 10 µM
29 | O=[N+]([O-])c1cnc(Sc2nnc(O)n2C2CCCCC2)s1 | 9.75 µM | IC50 (FFLUC_HILL_SLOPE 1.98, FFLUC_R_SQUARED 0.448, HEPG2TOX_HILL_SLOPE 4.19, HEPG2TOX_R_SQUARED 0.922, PBLUC_HILL_SLOPE 12.6, PBLUC_R_SQUARED 0.344, read-out: LUCIFERASE INFECTION ASSAY - IC50): 8.19 µM
